Legend:
[1] = Column experiment (Example 3): nitrate-polluted well water passed through column filled with material; conditions: well water (nitrate nitrogen 14 mg/L) after column, passing time 5.5 hours, 21° C.
Description: FIG. 3 is a view showing the structure of a column experiment apparatus used for effecting the method of decreasing nitrate nitrogen and volatile organic compounds in Example 3. Here, the column is a vessel having a function of decreasing nitrate nitrogen and volatile organic compounds, and decreases nitrate nitrogen and volatile organic compounds by allowing groundwater such as well water and the like to pass. In Example 3, a resin column having a diameter of 28 cm and a height of 2 m was used.
Well water evacuated from a well 23 by a pump 24 flow into this column 21 through an introduction port 25 of the column 21. It is so constituted that well water which comes into with the experiment material 22 while rising in the column 21, is discharged from an outflow port 26 formed at the upper part of the column 21.
Column experiments were conducted as described below using the column experiment apparatus constituted as described above.
From already-provided well polluted with nitrate nitrogen (nitrate nitrogen concentration: 14 mg/L), well water was evacuated by a pump 24 and allowed to flow into the column 21. In Example 3, six resin columns having a diameter of 28 cm and a height of 2 m were used, and experiments were conducted on 12 kinds of experiment materials using the resin columns each twice.
In the examples, experiment materials of the present invention such as fatty acids and alcohols were filled in columns (column Nos. 1 to 8) and comparative materials of conventional technologies were filled in columns (column Nos. 9 to 12) for comparison, and the evacuated groundwater was passed through them. In these experiments, substantial filling heights of the experiment materials in the columns were all 1.8 m. The passing time of groundwater in the column was 5.5 hours, and the average environment temperature during the experiment period was 21° C.
The nitrate nitrogen concentration, ammonia nitrogen concentration and total carbon concentration of the well water after passing through the column 30 days after initiation of passing of well water which is experiment initiation were measured.

[2] = Well experiment in soil polluted with tetrachloroethylene (Example 8): analysis of water collected from the well; conditions: 30 kg added over 6 days, initial about 0.25 mg/L
Experimental: In the method of decreasing nitrate nitrogen and volatile organic compounds in Example 8, an experiment was conducted using a well provided in soil polluted with tetrachloroethylene.
It had been known by previous investigation that about 125 m^2 of the surface of soil was polluted, and a water-containing layer at a position 6 m below the ground surface was polluted. In this water-containing layer, the tetrachloroethylene concentration was about 0.25 mg/L.
30 kg of stearylamine was gradually added over 6 days through a well in the polluted soil, and the tetrachloroethylene concentration, total carbon concentration and total nitrogen concentration after 90 days were analyzed from water collected from the well.

Compound: CCCCCCCCCCCCCCCCCCCCCC(=O)O [Behenic acid]
- Nitrate nitrogen concentration after 30 days [1]: 1.8 mg/L

Compound: CCCCCCCCCCCCCCO [Myristyl alcohol]
- Nitrate nitrogen concentration after 30 days [1]: 2.5 mg/L

Compound: CCCCCCCCCCCCCCCCCCN [stearylamine]
- tetrachloroethylene concentration after 90 days [2]: 0.08 mg/L

Compound: Sorbitan monomyristate
- Nitrate nitrogen concentration after 30 days [1]: 1.6 mg/L

Compound: CCCCCCCCCCCCCCCCCC(=O)OC [Methyl stearate]
- Nitrate nitrogen concentration after 30 days [1]: 1.4 mg/L

Compound: OC[C@H]1O[C@@](CO)(O[C@H]2O[C@H](CO)[C@@H](O)[C@H](O)[C@H]2O)[C@@H](O)[C@@H]1O [Sucrose, reference compound]
- Nitrate nitrogen concentration after 30 days [1]: 15.0 mg/L
